Activity calls are given as the source filed them. The rule behind the calls is not given here.

The results in this text go back to ChEMBL document CHEMBL4680379, “Structure-based Discovery of Cell-Potent Peptidomimetic Inhibitors for Protein N-Terminal Methyltransferase 1” (ACS Med Chem Lett, 2021).

For data set [1], the target named is Adenosylhomocysteinase (Homo sapiens) (UniProt P23526). Description: Inhibition of SAHH (unknown origin) at 100 uM relative to control.
Data set [2] has as its system HT-29. Put plainly: Cytotoxicity against human HT29 cells assessed as reduction in cell viability up to 1 mM incubated for 24 hrs by resazurin-dye based alamar blue assay. Particulars: ht-29, 24 h.
For data set [3], the target named is T1, N-terminal Xaa-Pro-Lys N-methyltransferase 1 (Homo sapiens, UniProt Q9BV86).
T1 sequence (Q9BV86 whole entry): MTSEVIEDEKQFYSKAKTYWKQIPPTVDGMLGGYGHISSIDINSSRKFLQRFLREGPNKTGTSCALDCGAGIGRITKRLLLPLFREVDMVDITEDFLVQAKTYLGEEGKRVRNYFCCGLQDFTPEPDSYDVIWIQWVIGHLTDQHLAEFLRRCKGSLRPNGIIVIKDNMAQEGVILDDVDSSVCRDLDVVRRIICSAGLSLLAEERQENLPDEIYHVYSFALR
Put plainly: Inhibition of NTMT1 in human HCT116 cells assessed as decrease in me3-RCC1 level incubated for 3 days by Western blot analysis. The format is cell-based, HCT-116.

Data set [4] has as its target T2, N-terminal Xaa-Pro-Lys N-methyltransferase 1 (Homo sapiens) (UniProt Q9BV86).
T2 sequence (whole entry): T1 sequence (Q9BV86 whole entry)
Put plainly: Inhibition of NTMT1 in human HCT116 cells assessed as decrease in me3-SPK level at 300 uM incubated for 3 days by Western blot analysis relative to control. The format is cell-based. Particulars: HCT-116, time 3.0 day. (Immunoblotting shows a protein as a band on a membrane.)

The species named for data set [5] is Homo sapiens. Description: Selectivity for recombinant human N-terminal His6-tagged NTMT1 (1 to 222 residues) expressed in Escherichia coli BL21-CodonPlus(DE3)-RIL over PRMT3 (unknown origin).
Another data set has as its system Trypanosoma brucei. Description: Inhibition of Trypanosoma brucei N-terminal His6-tagged PRMT7 expressed in Escherichia coli BL21-CodonPlus(DE3)-RIL at 100 uM using H4-21 peptide as substrate preincubated for 10 mins in presence of SAM followed by substrate addition by SAHH-coupled fluorescence assay relative to control.
The species named for data set [6] is Homo sapiens. Put plainly: Selectivity for recombinant human N-terminal His6-tagged NTMT1 (1 to 222 residues) expressed in Escherichia coli BL21-CodonPlus(DE3)-RIL over SAHH (unknown origin).
Data set [7] is described as follows: Selectivity for recombinant human N-terminal His6-tagged NTMT1 (1 to 222 residues) expressed in Escherichia coli BL21-CodonPlus(DE3)-RIL over Trypanosoma brucei N-terminal His6-tagged PRMT7 expressed in Escherichia coli BL21-CodonPlus(DE3)-RIL.
The target of data set [8] is Protein arginine N-methyltransferase 1 (Homo sapiens) (UniProt Q99873). Description: Inhibition of PRMT1 (unknown origin) at 100 uM using H4-21 peptide as substrate preincubated for 10 mins in presence of SAM followed by substrate addition by SAHH-coupled fluorescence assay relative to control.
Data set [9] concerns HT-29. Put plainly: Cytotoxicity against human HT29 cells assessed as reduction in cell viability up to 1 mM incubated for 48 hrs by resazurin-dye based alamar blue assay. Particulars: ht-29, 48 h. (The colour change of resazurin is a common sign of viable cells or microbes.)
For data set [10], the target named is T2, N-terminal Xaa-Pro-Lys N-methyltransferase 1 (Homo sapiens). Put plainly: Inhibition of NTMT1 in human HCT116 cells assessed as decrease in me3-RCC1 level at 100 uM incubated for 3 days by Western blot analysis. In kind it is cell-based. As to conditions: HCT-116, time 3.0 day.
The subject of another data set is HCT-116. Put plainly: Cytotoxicity against human HCT116 cells assessed as reduction in cell viability up to 1 mM incubated for 24 hrs by resazurin-dye based alamar blue assay. As to conditions: hct-116, 24 h.

Protein arginine N-methyltransferase 1 (Homo sapiens), sequence (Q99873 whole entry, looked up): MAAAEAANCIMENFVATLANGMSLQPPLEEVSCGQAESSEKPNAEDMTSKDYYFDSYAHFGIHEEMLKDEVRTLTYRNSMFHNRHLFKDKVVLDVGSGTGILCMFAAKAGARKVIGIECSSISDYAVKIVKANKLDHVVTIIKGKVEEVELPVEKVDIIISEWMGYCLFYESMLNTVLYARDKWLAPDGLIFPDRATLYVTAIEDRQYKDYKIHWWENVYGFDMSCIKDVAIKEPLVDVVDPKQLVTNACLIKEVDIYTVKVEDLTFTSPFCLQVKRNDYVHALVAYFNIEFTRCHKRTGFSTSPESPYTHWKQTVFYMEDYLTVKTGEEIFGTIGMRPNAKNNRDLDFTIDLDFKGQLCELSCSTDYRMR
Adenosylhomocysteinase (Homo sapiens), sequence (P23526 2-432 limits assumed): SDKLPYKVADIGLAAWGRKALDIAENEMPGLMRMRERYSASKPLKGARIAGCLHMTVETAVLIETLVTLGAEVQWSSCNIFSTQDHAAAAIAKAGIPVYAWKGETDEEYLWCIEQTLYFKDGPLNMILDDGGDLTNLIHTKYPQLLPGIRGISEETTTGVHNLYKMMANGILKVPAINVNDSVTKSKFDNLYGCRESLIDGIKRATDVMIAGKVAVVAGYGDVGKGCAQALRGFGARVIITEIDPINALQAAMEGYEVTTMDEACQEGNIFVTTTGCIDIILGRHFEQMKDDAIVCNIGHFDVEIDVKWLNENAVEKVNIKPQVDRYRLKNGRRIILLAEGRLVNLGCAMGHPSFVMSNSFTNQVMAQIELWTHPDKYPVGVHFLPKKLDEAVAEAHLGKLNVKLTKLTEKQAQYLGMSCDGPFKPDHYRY

One may read the inhibition as the relative decrease from the control value, in per cent. One may read the IC50 as the concentration needed to halve the response being measured. As for `NCCCC[C@H](NC(=O)[C@@H]1CCCN1C(=O)Cc1cccc2ccccc12)C(=O)Nc1ccccc1C(N)=O`, the inhibition in data set [1] was under 50%; in [4], 90%; with Trypanosoma brucei, under 50%; in [8], under 50%. The Activity entry with HT-29 [2], with HT-29 [9] and in the data set on HCT-116 was “Non-Toxic” each time. In addition, the IC50 in data set [3] amounted to 100 µM. Further, the Selectivity ratio (in the data set filed under Homo sapiens [5]; in the data set filed under Homo sapiens [6]; in data set [7]) was over 300 in each case. The inhibition result in [10] is “Active”.
